Laboratory results: US6500405B1, “Use of certain amides as probes for detection of antitubulin activity and resistance monitoring” (Dow AgroSciences LLC, priority 1996, dated 2002)

Columns and labels:
[1] = test system: isolated bovine tubulin; assay: Binding assay, tritiated compound 1 as probe, isolated bovine tubulin; details: 100 μM final concentration; 10 μM tubulin; 30 minutes preincubation, 120 minutes with tritiated compound 1 at 37° C.
Protocol: Assay mixtures contained 10 μM isolated tubulin in 1.0 M sodium glutamate, pH 6.6 containing 1 mM MgCl2, and 2.5 μDMSO (control) or 2.5 μl of test compound dissolved in DMSO in 0.5 ml polypropylene tubes. Mixtures were incubated at 37° C. for 30 minutes, then 2.5 μl of a 640 μM solution of tritium-labeled compound 1 in DMSO was added. After further incubation at 37° C. for 120 minutes, aliquots (80 μl) of the assay mixtures were applied to 2.3 cm diameter Whatman 3MM filter paper disks, which were dried for 15 seconds under warm air, immersed in 3 ml of ice-cold 10% trichloroacetic acid, and left overnight at 4° C. Disks were transferred to 5% trichloroacetic acid for 30 minutes, washed twice more in 5% trichloroacetic acid, washed for 30 minutes at 37° C. in ethanol/ether (1:1, v/v), then for 15 min at room temperature in ethanol/ether (1:1, v/v), and finally in two successive washes for 15 minutes each in ether at room temperature. The disks were dried, transferred to scintillation vials containing 10 ml of Hydrofluor™ and counted in a scintillation counter.

[2] = test system: tubulin in colon cancer cell line HCT-116; assay: Whole cell binding assay, tritiated S-enantiomer of compound 2 as probe, colon cancer cell line HCT-116; details: for Binding of radioligand (% control): HCT-116, 1 hour preincubation, 1 hour with radioligand; for Effect on binding of the radioligand (in words): HCT-116, tritiated S-enantiomer of compound 2
Protocol: Effect of antitubulin compounds on binding of the tritiated S-enantiomer of compound 2 to tubulin in a whole cell binding assay using the colon cancer cell line HCT-116 is shown by this example.
The colon cancer cell line HCT-116 (obtained from the American Type Culture Collection) was cultured in 75 cm^2 flasks containing McCoy's 5a Modified Medium with 10% heat-inactivated fetal bovine serum, 50 U/ml of penicillin G and 50 U/ml of streptomycin sulfate. A cell suspension was prepared by trypsinization of the culture, and adjusted to a density of 10^6 cells/ml by dilution into incomplete medium (medium lacking serum, penicillin G and streptomycin). Aliquots (150 μl) of cell suspension were added to wells of 96-well glass fiber filter plates (Millipore Multiscreen® plates, 1 μm glass fiber, Type B). Wells then received 30 μl of a solution of the test antitubulin compound in incomplete medium/DMSO mixture (8.5:1, v/v) or 30 μl of the incomplete medium/DMSO mixture alone (control). After mixing, the plates were incubated at 37° C. for 1 hour, then 25 μl of 0.8 μM tritium-labeled S-enantiomer of compound 2 was added to each well. After mixing, the plates were incubated at 37° C. for 1 hour, then binding of the radioligand to tubulin was stopped by adding 50 μl of 100 μM unlabeled compound 2. The fluid was removed from the plate by vacuum filtration through the glass fiber, then 100 μl of ice-cold 10% trichloroacetic acid was added to each well. The plates were incubated for 1 h at 4° C., then the fluid was removed by filtration. Ice-cold ethanol (250 μl) was added to each well, the plates incubated for 1 h at 4° C., then the ethanol was removed by filtration. Wells were washed 4 more times with 250 μl of ice-cold ethanol. After drying the plates at 37° C. for 20 min, the glass fiber filters were punched out of the wells into scintillation vials, 5 ml of scintillation fluid was added to each vial, and the samples were counted in a scintillation counter to determine the amount of bound radioactivity. The effects of different antitubulin compounds on binding of the radioligand are presented in Table 11 with the amounts of radioligand bound in the presence of each antitubulin compound expressed as a percentage of the amount of radioligand bound in the control.

[3] = test system: plant tubulin; details: cited from earlier work
[4] = test system: brain tubulin; details: cited from earlier work
[5] = test system: tubulin; assay: Binding of S versus R enantiomers to tubulin; details: S enantiomer versus corresponding R enantiomer

Compound	Binding (% control) [1] [% control]	Binding of radioligand (% control) ([2]; 0.1 μM)	Binding of radioligand (% control) ([2]; 1 μM)	Binding of radioligand (% control) ([2]; 10 μM)	Binding of radioligand (% control) ([2]; 100 μM)	Effect on binding of the radioligand (in words) [2]	Inhibition of plant tubulin polymerization [3]	Inhibition of brain tubulin polymerization [4]	Binding of the S enantiomer to tubulin compared with the R enantiomer [5]	melting point [°C]
CC[C@]1(O)C[C@@H]2CN(CCc3c([nH]c4ccccc34)[C@@](C(=O)OC)(c3cc4c(cc3OC)N(C)[C@H]3[C@@](O)(C(=O)OC)[C@H](OC(C)=O)[C@]5(CC)C=CCN6CC[C@]43[C@@H]65)C2)C1 [Vinblastine, vinblastine]	90.7	155	218	286	323	increased binding of the radioligand	–	–	–	–
COP(=S)(NC(C)C)Oc1ccc(C)cc1[N+](=O)[O-] (stereo not shown) [amiprophosmethyl]	–	–	–	–	–	–	inhibit the polymerization of plant tubulin	not brain tubulin	–	–
COc1cc([C@@H]2c3cc4c(cc3[C@H](O)[C@H]3COC(=O)[C@H]23)OCO4)cc(OC)c1OC [Podophyllotoxin, podophyllotoxin]	21.7	37	0	0	0	reduced binding of the radioligand	–	–	–	–
CCC(C)(NC(=O)c1cc(Cl)c(N)c(C=NOC)c1)C(=O)CCl (stereo not shown) [Compound 2, 4-amino-3-chloro-5-methoxyiminomethyl-N-(3-chloro-1-ethyl-1-methyl-2-oxopropyl)benzamide]	–	–	–	–	–	–	–	–	bind more effectively to tubulin	140 to 141
COC(=O)Nc1nc2ccc(C(=O)c3cccs3)cc2[nH]1 [Nocodazole, nocodazole]	31.3	102	99	74	44	reduced binding of the radioligand	–	–	–	–
